Measurements reported in US20250059267A1, “COMBINATION THERAPY FOR TREATMENT OF TUMORS COMPRISING CANCER-ASSOCIATED FIBROBLASTS” (PHENOMIC AI, priority 2021, published 2025).

Key:
Type in all cases: cell-based, human
[1] = system: fibroblasts grown in the presence of either HCT 116 cells or HT-29 cells; assay: TGF-β pathway inhibitors in fibroblast-cancer cell co-cultures (CAF activation); details: for block of CAF activation in coculture (FIG. 2B): BJ fibroblasts with HT-29 cells, TGF-β 1 ng/ml; for activity on CAF phenotypes in co-culture: identical doses to those used in the previous test
Procedure: (§1) FIG. 2 TGF-β inhibitors perform poorly in co-culture compared to mono-culture. (A) Normal BJ fibroblasts were cultured in either minimal media or alongside HT-29 CRC cancer cells. 6-different TGF-β inhibitors were added alongside TGF-β [1 ng/ml]ligand. […] (B) This is most apparent comparing the effects of three TGF-β inhibitors with varying selectivity.
(§2) In brief, monocultures of BJ or CCD18-Co fibroblasts were stimulated with TGF-β for 48 hours in the presence of serial dilutions of each TGF-β inhibitor and fibroblast activation was assessed by immunofluorescence using αSMA and CD248. The probability of fibroblast activation was assessed by a machine learning model, Multiple Instance Learning (MIL) trained on unstimulated fibroblasts (no drug, no TGF-β) as a negative control, and TGF-β stimulated fibroblasts (with vehicle control) as positive control. For co-culture comparisons, the same fibroblasts were grown in the presence of either HCT 116 cells or HT-29 cells and treated with the same serial dilutions of small molecule TGF-β. For these co-cultures, the addition of exogenous TGF-β is not required as the cancer cells secrete sufficient TGF-β for maximal fibroblast activation. […] This observation was confirmed by CellProfiler analysis where individual fibroblasts were segmented and αSMA and stress-fiber intensity was quantified (FIG. 2A).
We took an mAb inhibitor of TGFBR2, LY3022859, and assessed the performance of this inhibitor in co-culture alongside SIS3 and […], (FIG. 2 B). […] In contrast, both LY364947 and SIS3 were active at identical doses to those used in the previous test. Again, exogenous TGF-β was dispensable for this effect.

[2] = system: BJ or CCD18-Co fibroblasts; assay: TGF-β pathway inhibitors in TGF-β stimulated fibroblast monocultures (αSMA/CD248 immunofluorescence, MIL model); details: 48 hours
Procedure: as §1
We then tested the relative potency of a panel of TGF-β pathway inhibitors in monoculture fibroblasts stimulated with TGF-β compared to co-culture with CRC cells that produce their own, similar levels of TGF-β.
as §2, with “control.” for “control. For co-culture comparisons, the same fibroblasts were grown in the presence of either HCT 116 cells or HT-29 cells and treated with the same serial dilutions of small molecule TGF-β. For these co-cultures, the addition of exogenous TGF-β is not required as the cancer cells secrete sufficient TGF-β for maximal fibroblast activation.”

[3] = system: fibroblasts (BJ, CCD18-Co); assay: Activin A, Activin B and TGF-β dose response for CAF induction in unstimulated fibroblasts; details: for IC50 values, 1 hr vs. 48 hr timepoints: BJ or CCD18-Co fibroblast mono-cultures in minimal media (N=2); for phenotypic changes in fibroblasts (SMAD2/3, phospho-CREB, ASMA, Endosialin): BJ-fibroblasts; for EC50 values (fibroblast induction into a CAF like state, composite machine learning score): depending on condition tested, BJ, CCD18-Co, 1 hr and 48 hr; for ASMA score (intensity and number of ASMA filaments) vs. TGF-β treatment: highest dose, 48 hours
Procedure: FIG. 3 Activin and TGF-β both induce a CAF phenotype in fibroblast cell-lines. […] B) Quantification of ASMA levels and plate coverage further reinforce these changes downstream of addition of both Activin and TGF-β. C) TGF-β and Activin A were added over a range of doses to BJ or CCD18-Co colon fibroblasts grown as mono-cultures in minimal media (N=2). Cells were stained for Actin, Endosialin/CD248, DAPI/Nuclei, and αSMA. Machine Learning (Multiple Instance Learning) models were trained on the highest and lowest doses to generate dose-response curves.
To test whether Activin signaling could induce CAF activation similarly to TGF-β we added serial dilutions (3-fold) of recombinant Activin A ([…] max concentration) and Activin B ([…] max concentration) to unstimulated fibroblasts (BJ, CCD18-Co) to generate dose response curves for Activin A and B. A serial 3-fold dilution of TGF-β was also tested as a positive control ([…] max concentration). A number of high-content markers of CAF activation we used as endpoints. Namely, cells were probed for SMAD2/3 translocation to the nucleus and phospoCREB levels at 1 hr, as a marker of direct ACVR/TGFBR stimulation. ASMA and Endosialin levels were then probed at 48 hrs to quantify CAF induction levels following Activin and TGF-β stimulation. At the highest dose, at 1 hr we saw SMAD 2/3 nuclear translocation alongside phospho-CREB up-regulation, indicating receptor engagement and activity in both Activin and TGF-β treated conditions (FIG. 3A).

[4] = system: CCD-18Co normal colon fibroblasts; assay: Cytokine stimulation of fibroblast monocultures, CAF marker immunofluorescence; details: fibroblast monoculture serum-starved 24 hours, stimulated 48 hours, vs untreated fibroblasts
Procedure: A panel of 5 CAF markers were then used to stain the cultures and the expression levels of expression of the markers calculated from individual segmented fibroblasts.
First, we treated normal human fibroblasts with a panel of cytokines to induce activation, and then assessed CAF marker expression by immunofluorescence. Fibroblast monocultures were serum-starved for 24 hours then stimulated with TGF-β, TNF alpha, PDGFbb, acidic FGF or other cytokines for 48 hours. Cells were then fixed, permeabilized and stained with a panel of immunofluorescent CAF markers and imaged by high-content microscopy.

Compound: c1ccc(-c2[nH]ncc2-c2ccnc3ccccc23)nc1 [LY364947]
- block of CAF activation in coculture (FIG. 2B) [1]: blocks CAF activation at high doses
- activity on CAF phenotypes in co-culture [1]: active

Compound: Cc1cccc(-c2nn3c(c2-c2ccnc4ccc(C(N)=O)cc24)CCC3)n1 [LY2157299]
- inhibition of αSMA in co-culture ([1]; even up to 100 μM): very little inhibition
- effectiveness in monoculture (inhibition of αSMA) [2]: effective

Compound: COc1cc2c(cc1OC)CN(C(=O)/C=C/c1c(-c3ccccc3)n(C)c3ncccc13)CC2 [SIS3]
- response in co-culture among the inhibitors tested (rightward shift of IC50) [1]: best response
- reduction of αSMA levels in coculture ([1]; % of the control, conditions with >5% cell death excluded): more than 50%
- block of CAF activation in coculture (FIG. 2B) [1]: able to block CAF activation
- activity on CAF phenotypes in co-culture [1]: active

Compound: Activin A: recombinant Activin A
- IC50 values, 1 hr vs. 48 hr timepoints [3]: lower at the 48 hr timepoint in CCD18 colon fibroblasts
- phenotypic changes in fibroblasts (SMAD2/3, phospho-CREB, ASMA, Endosialin) [3]: induce similar phenotypic changes
- EC50 values (fibroblast induction into a CAF like state, composite machine learning score) [3]: 10 to 30 µg/mL
- ASMA score (intensity and number of ASMA filaments) vs. TGF-β treatment [3]: no difference

Compound: Activin B: recombinant Activin B
- phenotypic changes in fibroblasts (SMAD2/3, phospho-CREB, ASMA, Endosialin) [3]: induce similar phenotypic changes
- EC50 values (fibroblast induction into a CAF like state, composite machine learning score) [3]: 4 to 9 µg/mL
- ASMA score (intensity and number of ASMA filaments) vs. TGF-β treatment [3]: no difference

Compound: TGF-β: TGF-β ligand added as cytokine stimulus and positive control
- expression of alpha-smooth muscle actin (αSMA), podoplanin (PDPN) and CD248 [4]: increased expression
- IC50 values, 1 hr vs. 48 hr timepoints [3]: lower for 1 hr timepoints vs. 48 hr timepoints
- phenotypic changes in fibroblasts (SMAD2/3, phospho-CREB, ASMA, Endosialin) [3]: induce similar phenotypic changes
